In patent publication US20210214358A1, “CDK4/6 INHIBITOR AND PHARMACEUTICALLY ACCEPTABLE SALT AND POLYMORPH THEREOF AND USE THEREOF” (SHANGHAI HAIYAN PHARMACEUTICAL TECHNOLOGY CO., LTD., priority 2018, published 2021):

Legend:
CDK1 = molecular target: T1, CDK1 (Homo sapiens, UniProt P06493); assay: Kinase test in vitro (LANCE Ultra, Ulight-4EBP1); format: biochemical
T1 construct: purchased BPS
Description: (§1) Recombinant CDK1, CCNB1 and CDK9, and CCNT were purchased from BPS; CDK2, CCNA1, CDK4, CCND1 and CDK6, and CCND1 were purchased from Invitrogen; CDK4, CycD3 and CDK6, and CycD3 were purchased from Carna. Adenosine triphosphate (ATP) was purchased from Life tech. Substrate Ulight-4EBP1 and the corresponding detection antibody were purchased from Perkinelmer. LANCE Ultra system from Perkinelmer is used as the detection system.
(§2) In the kinase test, a compound to be tested was 1:3 diluted for 8 gradient points and added into a reaction plate, and then an appropriate amount of recombinase was added. A buffer [50 mM HEPES pH7.5, 10 mM MgCl2, 3 mM MnCl2, 1 mM EGTA, 0.01% Tween-20, 1 mM TCEP] containing ATP, Ulight-4EBP1 premix at a predetermined concentration was subsequently added, and the kinase reaction began at room temperature. A test solution pre-mixed with 10 mM EDTA and detection antibody was added after a suitable reaction time, and then the fluorescence value was read on Tecan infinite pro after reacting for 1 hour at room temperature. The IC50 was calculated using a four-factor model fitting in a XLfit software.

CDK2 = molecular target: T2, CDK2 (Homo sapiens, UniProt P24941); assay: Kinase test in vitro (LANCE Ultra, Ulight-4EBP1); format: biochemical
T2 construct: purchased Invitrogen
Description: as §1, §2

CDK4 = molecular target: T3, CDK4 (Homo sapiens, UniProt P11802); assay: Kinase test in vitro (LANCE Ultra, Ulight-4EBP1); format: biochemical
T3 construct: purchased Invitrogen or Carna
Description: as §1, §2

CDK6 = molecular target: T4, CDK6 (Homo sapiens, UniProt Q00534); assay: Kinase test in vitro (LANCE Ultra, Ulight-4EBP1); format: biochemical
T4 construct: purchased Invitrogen or Carna
Description: as §1, §2

[1] = Pharmacokinetics and brain distribution test; format: in vivo, SD rats; details: rats, oral 10 mg/kg
Description: Test Animals: healthy adult male SD rats (weight 210-230 g per rat, 12 rats, fasted overnight, fed 4 hours after dosing), provided by SLAC company; preparation of oral solution: 40.14 mg of compound P-53 was weighed and added into a clean tube, and 36.479 mL of 0.5% HPC-H (TCI, E6ZQA) in acetate buffer (PH4.5) was added into the tube. The mixture was then vortexed for 1-2 min. Then the solution was sonicated for 20-25 min and stirred for 20-25 min.
SD rats were administered via intragastric administration (10 mg/kg (10 mL/kg)); samples were collected at 0.5, 1, 2 and 4 hr after dosing (total 4 timepoints), wherein only plasma samples were collected continuously, and brain tissue and cerebrospinal fluid were collected at each time point.
Blood collection: The animal was restrained manually and at each time point collected approximately 150 μL blood via tail vein into a K2EDTA-containing tube. Within 15 minutes, the blood sample was put on wet ice and centrifuged to obtain plasma sample (2000 g, 5 min under 4° C.). […]
Analytical method: the plasma and brain of SD rats were used as matrix, and Glipizide was used as an internal standard. […] The drug concentration was determined by LC-MS/MS method, the pharmacokinetic parameters in the plasma, brain tissue, and cerebrospinal fluid of rats are shown in Table 8: […]

T4 sequence (Q00534 whole entry): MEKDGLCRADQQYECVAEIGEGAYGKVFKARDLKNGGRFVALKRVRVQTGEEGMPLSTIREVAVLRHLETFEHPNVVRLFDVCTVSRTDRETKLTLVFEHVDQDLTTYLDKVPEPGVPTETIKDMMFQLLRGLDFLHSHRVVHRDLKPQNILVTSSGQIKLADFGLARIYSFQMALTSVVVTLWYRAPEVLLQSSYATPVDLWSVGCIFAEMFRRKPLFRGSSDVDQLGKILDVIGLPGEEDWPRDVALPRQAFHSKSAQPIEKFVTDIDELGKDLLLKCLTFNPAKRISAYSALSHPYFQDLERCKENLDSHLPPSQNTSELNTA
T4 sequence (P24385 whole entry partner): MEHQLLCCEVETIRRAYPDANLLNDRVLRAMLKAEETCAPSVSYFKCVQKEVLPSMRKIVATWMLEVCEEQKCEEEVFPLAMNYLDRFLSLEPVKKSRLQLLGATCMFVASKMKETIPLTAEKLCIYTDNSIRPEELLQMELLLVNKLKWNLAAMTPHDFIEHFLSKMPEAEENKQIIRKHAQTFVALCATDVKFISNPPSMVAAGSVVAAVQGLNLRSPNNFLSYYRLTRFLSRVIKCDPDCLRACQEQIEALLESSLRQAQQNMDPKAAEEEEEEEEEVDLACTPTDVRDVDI
T3 sequence (P11802 whole entry): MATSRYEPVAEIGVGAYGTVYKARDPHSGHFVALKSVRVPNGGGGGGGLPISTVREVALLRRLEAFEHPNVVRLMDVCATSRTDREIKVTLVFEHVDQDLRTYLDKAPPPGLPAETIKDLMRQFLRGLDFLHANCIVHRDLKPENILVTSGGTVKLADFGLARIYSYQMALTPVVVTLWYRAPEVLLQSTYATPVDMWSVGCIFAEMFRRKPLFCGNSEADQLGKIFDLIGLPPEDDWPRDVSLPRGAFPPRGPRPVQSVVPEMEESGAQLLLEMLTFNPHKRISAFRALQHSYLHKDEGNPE
T3 sequence (P24385 whole entry partner): as the sequence (P24385 whole entry partner) above
T1 sequence (P06493 whole entry): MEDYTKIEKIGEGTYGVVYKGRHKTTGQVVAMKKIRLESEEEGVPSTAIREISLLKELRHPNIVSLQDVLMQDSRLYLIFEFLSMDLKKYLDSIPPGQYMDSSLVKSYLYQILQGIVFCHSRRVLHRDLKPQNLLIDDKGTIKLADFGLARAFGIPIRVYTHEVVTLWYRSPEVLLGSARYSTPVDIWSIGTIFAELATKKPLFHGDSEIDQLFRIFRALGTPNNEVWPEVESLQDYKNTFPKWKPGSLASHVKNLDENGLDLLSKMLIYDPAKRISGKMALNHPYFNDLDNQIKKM
T1 sequence (P14635 whole entry partner): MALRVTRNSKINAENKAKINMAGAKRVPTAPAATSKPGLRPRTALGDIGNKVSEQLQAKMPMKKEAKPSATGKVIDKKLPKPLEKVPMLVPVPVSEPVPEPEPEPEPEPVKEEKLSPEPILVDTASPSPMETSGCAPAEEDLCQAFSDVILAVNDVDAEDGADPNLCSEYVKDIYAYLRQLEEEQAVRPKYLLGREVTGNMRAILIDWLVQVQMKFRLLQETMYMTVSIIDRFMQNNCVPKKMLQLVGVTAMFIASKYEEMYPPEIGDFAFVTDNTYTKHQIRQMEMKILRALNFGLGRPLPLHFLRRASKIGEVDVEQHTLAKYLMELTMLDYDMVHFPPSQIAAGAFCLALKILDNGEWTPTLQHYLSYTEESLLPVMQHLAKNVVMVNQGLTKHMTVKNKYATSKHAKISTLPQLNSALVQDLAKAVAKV

- IC50 (CDK1): 6.09 µM
- inhibitory activity against CDK1 (in words) (CDK1): weak inhibitory activity
- IC50 (CDK2): 8.75 µM
- inhibitory activity against CDK2 (in words) (CDK2): weak inhibitory activity
- IC50 (CDK4): 0.01 µM
- inhibitory activity against CDK4 (in words) (CDK4): strong inhibitory activity
- IC50 (CDK6): 0.057 µM
- inhibitory activity against CDK6 (in words) (CDK6): strong inhibitory activity
- brain permeability (in words) [1]: can cross the blood-brain barrier
Compound: CCN1CCN(Cc2ccc(Nc3ncc4c(n3)-c3c(nc(C5CC5)n3C(C)C)C4)nc2)CC1 [Free base of compound of formula X, 2-cyclopropyl-N-(5-((4-ethylpiperazin-1-yl)methyl)pyridin-2-yl)-3-isopropyl-3,8-dihydroimidazo[4′,5′,4,5]cyclopenta[1,2-d]pyrimidin-5-amine]
